Reference: patent US6489307B1, “Antisense compositions targeted to β1-adrenoceptor-specific mRNA and methods of use” (University of Florida, priority 1998, dated 2002)
Entries after “also recorded” stand apart in the source; their conditions may differ.

Tests used:
[1] = Immune response (gel immunodiffusion, C-reactive protein); assay type: in vivo, rat (SHR); conditions: after repeated administration
Description: Safety profiles including liver transaminases, hematology, immune response and tissue pathology were investigated during three repeated injections of β1-AS-ODNs for extended periods of time.
C-reactive protein (CRP), a clinical index for immune reaction, was found negative in all animals.

SHRs [2] = assay: Telemetric monitoring of conscious SHRs during dobutamine infusion; assay type: in vivo, rat (SHR)
Description: Two days after catherization of the jugular vein, control values were taken and 1 mg/kg β1-AS-ODN was injected. 48 hr later, rats were tested for the effect of β1-AS-ODN. The rats were allowed to recover until all the cardiovascular parameters returned to control values. […] For β1-stimulation, SHRs were infused with dobutamine (β1-selective agonist) through a jugular vein catheter at 5, 10, 20, and 40 μg·kg^−1·min.^−1. Each dose was given for 5 min. continuously and at 1-hr intervals until all the cardiovascular parameters returned to baseline values so as to avoid the effect of tachyphylaxis. BP and HR were sampled every 1 min. dP/dtmax was calculated from the slope of the rising pulse-pressure curve and determined every 1 min. The difference between values at each dose and baseline was denoted as Δ.
Two days after catheterization of jugular vein, control values were taken and 1 mg/kg β1-AS-ODN was injected. Forty-eight hr later, rats were tested for the effect of β1-AS-ODN. The rats were allowed to recover until all the cardiovascular parameters returned to control values. […] For β1-stimulation, SHR were infused with dobutamine (β1-selective agonist) through jugular vein catheter at 5, 10, 20, 40 μg/kg/min. Each dose was given for 5 min continuously and at 1-hr intervals until all cardiovascular parameters returned to baseline so as to avoid the effect of tachyphylaxis. BP and HR were sampled every min. dP/dtmax was calculated from the slope of the rising pulse pressure curve and determined every min. The difference between values at each dose and baseline was denoted as Δ.

SHRs [3] = assay type: in vivo, rat (SHR)
Description: (§1) Each rat cage was placed on a receiver (RLA 1020, Data Sciences, St. Paul, Minn.) for measurement of cardiovascular parameters. Data were collected with a computer-based data acquisition program (Dataquest Lab-PRO3.0; Data Sciences). BP and HR were measured every 10 min. and averaged every 1 to 24 hrs. Before treatment, SHRs were monitored for a week to get a stable baseline.
as §1, with “(RLA1020,” for “(RLA 1020,”, “Sciences)” for “Sciences, St. Paul, Minn.)”, “LabPRO3.0;” for “Lab-PRO3.0;”, “min” for “min.”, “hr.” for “hrs.”, “SHR” for “SHRs”

β1-ARs = target: T1, β1-ARs (Rattus norvegicus, UniProt P18090); conditions: even after 18 days, single i.v. injection (Zhang et al., 1999); cited from earlier work
T1 construct: membranes were prepared from heart ventricles as previously described; from tissue; host or cells: heart ventricles of SHR

[4] = tested on: isolated perfused SHR hearts; assay: Isolated perfused SHR hearts (Langendorff), response to isoproterenol; assay type: in vivo, rat (SHR); conditions: 48 hr after 1 mg/kg; vs inverted ODN
Description: 48 hr after injection of 1 mg/kg β1-AS-ODN (n=9) or inverted ODN (n=6), SHRs were anesthetized and killed. Hearts were quickly removed and perfused via the aorta with oxygenated Krebs buffer (118 mmol/L NaCl, 18.75 mmol/L NaHCO3 1.2 mmol/L KH2PO4, 4.7 mmol/L KCl, 1.2 mmol/L MgSO4, 1.25 mmol/L CaCl2, 11.1 mmol/L glucose, and 0.01 mmol/L EDTA) at a constant flow of 7.0 mL/min. at 36° C. Coronary perfusion pressure was measured via a catheter placed proximal to the aorta and connected to a pressure transducer (Gould Staham P23ID, Eastlake, Ohio). A latex balloon filled with water and connected to the pressure transducer was inserted into the left ventricle through the left atrium to measure left ventricular end-diastolic pressure (LVEDP), left ventricular systolic pressure (LVSP), and developed left ventricular pressure (dLVP) (dLVP=LVSP−LVEDP). LVEDP during equilibration was set at 5 to 7 mm Hg. Coronary perfusion pressure, LVEDP, and LVSP were recorded continuously on a 4-channel recorder (Astro-Med, West Warwick, R.I.). […]
Forty-eight hr after injection of 1 mg/kg β1-AS-ODN (n=9) or inverted-ODN (n=6), SHR were anesthetized and sacrificed. […] Coronary perfusion pressure (CPP) was measured via a catheter placed proximal to the aorta and connected to a pressure transducer (Gould Statham P23ID). […] CPP, LVEDP and LVSP were continuously recorded on a 4-channel recorder (Astro-Med). […]

plasma Ang II = assay: Plasma Ang II radioimmunoassay; assay type: in vivo, rat (SHR)
Description: Plasma Ang II levels were measured by radioimmunoassay as previously described (Phillips and Kimura, 1988).

β2-AR = assay: β-AR density in myocardium after ischemia-reperfusion (binding assay); parameters: species or system Sprague-Dawley rats; conditions: rat, in vivo
Description: Membrane protein was prepared from left ventricles as previously described (Baker and Pitha, 1982). For saturation studies, 100 μg membrane protein was incubated in triplicate with ^125I-(−)iodocyanopindolol (I-CYP, NEN Life Science, 6.25-100 pM) in a total volume of 250 μl containing 50 mM Tris-HCl (pH 7.4), 5 mM MgCl2 at 36° C. for 60 min. The nonspecific and β2-adrenoceptor binding were determined in the presence of 1 μM (±)-alprenolol and […] (RBI), respectively. Then the reaction mixture was passed through Whatman GF/B glass filter using Brandel harvester and the radioactivity was counted for one min.

T1 sequence (P18090 whole entry): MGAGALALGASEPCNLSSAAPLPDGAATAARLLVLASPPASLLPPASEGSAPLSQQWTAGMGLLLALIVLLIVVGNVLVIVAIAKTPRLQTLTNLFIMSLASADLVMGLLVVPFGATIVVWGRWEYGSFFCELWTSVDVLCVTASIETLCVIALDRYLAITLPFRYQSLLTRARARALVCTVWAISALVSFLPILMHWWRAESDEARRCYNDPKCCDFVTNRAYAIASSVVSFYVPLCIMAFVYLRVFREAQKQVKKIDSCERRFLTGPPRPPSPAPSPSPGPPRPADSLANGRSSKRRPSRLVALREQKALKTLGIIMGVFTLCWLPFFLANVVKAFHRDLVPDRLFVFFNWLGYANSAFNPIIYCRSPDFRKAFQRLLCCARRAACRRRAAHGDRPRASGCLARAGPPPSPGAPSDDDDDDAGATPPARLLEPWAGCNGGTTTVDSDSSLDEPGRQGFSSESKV

5′-CCGCGCCCATGCCGA-3′ (phosphorothioate backbone, further chemistry not given here) [β1-AS-ODN, 15-mer antisense ODN targeted to the AUG start codon of rat β1-AR mRNA]
C-Reactive Protein [1]: negative
Antibody to ODN ([1]; gel immunodiffusion): no detectable antibody
basal (resting) HR (SHRs [2]; 1 mg/kg, control 365±8): 365±12 bpm
basal dP/dtmax (SHRs [2]; 1 mg/kg, control 2937±277): 2922±249 mm Hg/s
resting dP/dtmax (SHRs [2]; 1 mg/kg, control 2937±277): 2922±249 mmHg/sec
change in HR in the face of dobutamine (SHRs [2]; 48 hr after 1 mg/kg): not significantly reduced
increase in dP/dtmax in the face of dobutamine (SHRs [2]; 48 hr after 1 mg/kg): significantly (P<0.02) dampened
duration of antihypertensive effect (SHRs [3]; 1 mg/kg, liposomes 1:0.5): 8 days
maximum drop in mean BP (SHRs [3]; 1 mg/kg, liposomes 1:0.5): 15 mm Hg
reflex tachycardia (SHRs [3]; rat, in vivo): no reflex tachycardia
decrease in ventricular β1-AR density (β1-ARs): 30-50%
HR response to ISO [4]: not significantly decreased
dLVP-ISO dose-response curve (positive inotropic effect of ISO) [4]: significantly shifted downward; also recorded: significantly shifted down
plasma Ang II levels (plasma Ang II; day 4): not on day 4
plasma Ang II levels (plasma Ang II; day 10 and day 18): significantly decreased
β2-AR density in ischemic-reperfused myocardium (β2-AR): no change
